The values that follow come from US6603023B2 (priority 1996, dated 2003).

The conditions of the data set: from CC[Si](CC)(CC)O[C@@H](CC(=O)O)C(C)(C)C(=O)[C@H](C)[C@@H](OC(=O)OCC(Cl)(Cl)Cl)[C@@H](C)CCC/C(C)=C\C[C@H](O)/C(C)=C/c1csc(C)n1, ester bond, toluene, 25.0 °C.

The structures appear in SMILES notation. Like-named read-outs stand apart in the source and are kept apart here.

The molecule `CC[Si](CC)(CC)O[C@H]1CC(=O)O[C@H](/C(C)=C/c2csc(C)n2)C/C=C(/C)CCC[C@H](C)[C@H](OC(=O)OCC(Cl)(Cl)Cl)[C@@H](C)C(=O)C1(C)C` gave a ring closure, yield of all isomers (2,4,6-trichlorobenzoyl chloride / Et3N / DMAP, 0.79 mM, 3.5 h) of 78% and a ring closure, yield of all isomers (2,4,6-trichlorobenzoyl chloride/Et3N/DMAP, 1.32 mM, 3.75 h) of 78%.
